Where two headings read alike, the source gives them in different places.
How the values were obtained:
[1] = tested on: HEK 293 F cells; test: Viability assays (CellTiter-Glo, ATP); assay type: cell-based; conditions: viable cells by ATP quantitation, 3 days incubation, Figure 2 says B2-17 cells, method says HEK 293 F cells, read-out: IC50 (relative half maximal growth inhibitory concentration)
From the text: (§1) To identify novel small molecules targeting gene repression, we devised an image-based high-throughput screening system using the engineered HEK 293 F cell (termed as B2-17 cells) as report cell line. A chemical library containing 308,251 small molecules was screened in this system. Purposed for unbiased compound screening, this library had been used in a variety of studies (Sun et al., [2012]; Wang et al., [2013]; Dong et al., [2015]; Li et al., [2016]). Hundred and fifty eight compounds which reactivated reporter genes in more than half of cells were selected as hits. Next, we performed titration experiments for all these hits in the B2-17 cell line. The efficacy of each compound was evaluated by its maximal percentage of EGFP^+ cells in the dose-response curve (maximal RGFP) and relative half maximal effect concentration (EC50). The toxicity of the hits was also tested in parallel, measured by number of viable cells in each treatment. The assay is based on quantitative analysis of ATP, an indicator of metabolically active cells. For each compound, we calculated the relative half maximal growth inhibitory concentration (IC50), based on the abovementioned assay.
HEK 293 F cells were plated in 384-well, flat-bottom, tissue culture dishes (Corning) and treated with compounds, incubated 3 days, and assayed for viability using the CellTiter-Glo Luminescent Cell Viability Assay (Promega) according to the manufacturer's protocol. The […] with an EnSight plate reader (Perkin Elmer). Data were normalized to the untreated control (100% viability). Each treatment was tested in two independent assays, each containing 3 replicates. The titration-viability curves of each compound were also generated by using Origin 6.0 Pro software.

[2] = Water solubility (qualitative remark); assay type: physicochemical; conditions: 14b vs. 14a
[3] = tested on: EGFP reporter gene silenced by DNA methylation (B2-17 cells); test: Compound effective assay: derepression of EGFP reporter in B2-17 reporter cells (image-based, titration); assay type: cell-based; conditions: for Emax: 72 h, read-out: Maximal RGFP% (maximal percentage of EGFP+ cells in the dose-response curve); for EC50: dose-response of EGFP+ cells, read-out: EC50 (relative half maximal effect concentration); for activity of derepressing the EGFP reporter gene silenced by DNA methylation (in words): compared with hit compound LX-3
From the text: as §1
Procedure for cell culture and establishment of the reporter cell line were reported in our previously published paper (Li et al., [2018]).
Before plating cells, 384-well plates (ViewPlate, PerkinElmer) were coated with PDL (poly-D-lysine, Sigma). For each well, 1,300 B2-17 cells were plated by using a Matrix Wellmate microplate dispenser (Thermo Scientific). Then, 0.25 μL of compound was added to each well by using a versatile pipetting robot, the Biomek FX workstation (Beckman Coulter), to give a final compound concentration of 5 μM. After treatment for 72 h, the cell nuclei were stained by Hoechst 33342 (Sigma) before imaging.
The cells were imaged with Opera LX (PerkinElmer, three views per well by using 10 x (air) objective lens). Images were analyzed with the Columbus system, the mean percentage of EGFP+ cells (RGFP) was obtained to extrapolate the number of EGFP expressing cells and Hoechst-stained nuclei.
For the titration assay, the positive compounds were diluted in DMSO at concentrations ranging from 0.625 to 4 mM. Then, the B2-17 cells were treated by gradient compound and imaged as described before.
For each compound, a dose-response series was generated by using Origin 6.0 Pro software. The dot plot was fit by a DoseResp curve and then the EC50 was calculated.

[4] = tested on: p38 MAPK pathway; set-up: method as in Li et al., 2018; conditions: multiple cell types; ref Li et al., 2018; cited from earlier work

water solubility (in words) [2] | EC50 ([3]; B2-17 cells, 72 h treatment) | Molecule | IC50 ([1]; HEK293F, 72 h) | Emax ([3]; B2-17 cells, 72 h treatment) | activity of derepressing the EGFP reporter gene silenced by DNA methylation (in words) [3] | activation of the p38 MAPK pathway [4] | IC50 [1] | Maximal RGFP% (maximal percentage of EGFP+ cells in the dose-response curve) ([3]; B2-17 cells, 72 h treatment)
significantly increased | 3.4 µM | Cc1cc2c(cc1C)n1nc(-c3nccs3)nc1n2CC(=O)c1ccc(Br)cc1 [14b, 1-(4-bromophenyl)-2-(6,7-dimethyl-2-(thiazol-2-yl)-4H-benzo[4,5]imidazo[1,2-b][1,2,4]triazol-4-yl)ethan-1-one] | 2.1 µM | 58% | comparable with the hit compound LX-3 |  |  | 
 | 6.8 µM | COc1ccccc1-c1nc2n(CC(=O)c3ccc(Br)cc3)c3ccccc3n2n1 [22b, 1-(4-bromophenyl)-2-(2-(2-methoxyphenyl)-4H-benzo[4,5]imidazo[1,2-b][1,2,4]triazol-4-yl)ethan-1-one] | 3.3 µM | 21% | decreased significantly or even disappeared |  |  | 
 | 4.5 µM | O=C(Cn1c2ccccc2n2nc(-c3nccs3)nc12)c1ccc(Br)cc1 [22c, 1-(4-bromophenyl)-2-(2-(thiazol-2-yl)-4H-benzo[4,5]imidazo[1,2-b][1,2,4]triazol-4-yl)ethan-1-one] | 5.3 µM | 48% |  |  |  | 
 |  | Cc1ccsc1-c1nc2n(CC(=O)c3ccc(Br)cc3)c3ccccc3n2n1 [22d, 1-(4-bromophenyl)-2-(2-(3-methylthiophen-2-yl)-4H-benzo[4,5]imidazo[1,2-b][1,2,4]triazol-4-yl)ethan-1-one] | 12.3 µM | 19% | disappeared |  |  | 
 |  | O=C(Cn1c2ccccc2n2nc(-c3ccccn3)nc12)c1ccc(Br)cc1 [22e, 1-(4-bromophenyl)-2-(2-(pyridin-2-yl)-4H-benzo[4,5]imidazo[1,2-b][1,2,4]triazol-4-yl)ethan-1-one] | 2.8 µM | 6% |  |  |  | 
 | 6.4 µM | O=C(Cn1c2ccccc2n2nc(Cc3ccccc3)nc12)c1ccc(Br)cc1 [22f, 2-(2-benzyl-4H-benzo[4,5]imidazo[1,2-b][1,2,4]triazol-4-yl)-1-(4-bromophenyl)ethan-1-one] | 4.7 µM | < 22% |  |  |  | 
 | 1.9 µM | C=CCc1cc(/C=N/Nc2ccc(Br)cc2)cc(OCC)c1OC [LX-1] | 8.5 µM | 72% |  |  |  | 
 | 2.2 µM | CCc1ccc(CNc2ccc(CNc3ncn[nH]3)cc2)cc1 [LX-2] | 7.8 µM | 67% |  |  |  | 
 | 2.8 µM | O=C(Cn1c2ccccc2n2nc(-c3cccs3)nc12)c1ccc(Br)cc1 [LX-3, 1-(4-bromophenyl)-2-(2-(thiophen-2-yl)-4H-benzo[4,5]imidazo[1,2-b][1,2,4]triazol-4-yl)ethan-1-one] | 5.1 µM | 79% |  | selectively activate the p38 MAPK pathway |  | 
 | 2 µM | O=C(Cn1c2ccccc2c(=O)c2ccccc21)N/N=C/c1ccc(Sc2nc3ccccc3s2)c([N+](=O)[O-])c1 [LX-4] | 4.2 µM | 68% |  | selectively activate the p38 MAPK pathway |  | 
 | 4.1 µM | Cc1n[nH]c(Nc2ccc(/N=N/c3ccccc3)cc2)c1[N+](=O)[O-] [LX-5] | 4.2 µM | 89% |  | selectively activate the p38 MAPK pathway |  | 
 | 4.2 µM | Cc1cc(NC(=O)CSc2nc3ccc(Br)cc3c3nc4ccccc4n23)no1 [LX-6] | 5 µM | 71% |  |  |  | 
 | 1.9 µM | COc1ccc(NC(=O)c2ccco2)cc1NC(=O)c1ccc(-c2cccc([N+](=O)[O-])c2)o1 [LX-7] | 3.2 µM | 79% |  |  |  | 
 | 14.9 µM | O=C(Cn1c2ccc(Cl)cc2n2nc(-c3cccs3)nc12)c1ccc(Br)cc1 [compound 19, 1-(4-bromophenyl)-2-(7-chloro-2-(thiophen-2-yl)-4H-benzo[4,5]imidazo[1,2-b][1,2,4]triazol-4-yl)ethan-1-one] | 14.3 µM | 63% | significantly decreased |  |  | 
 | 29.9 µM | Cc1ccc(-c2ccc(-c3nc4n(CC(=O)c5ccc(Br)cc5)c5ccccc5n4n3)s2)cc1 [compound 25, 1-(4-bromophenyl)-2-(2-(5-(p-tolyl)thiophen-2-yl)-4H-benzo[4,5]imidazo[1,2-b][1,2,4]triazol-4-yl)ethan-1-one] | 10.9 µM | 61% | significant decrease or disappearance |  |  | 
 | 8.9 µM | O=C(Cn1c2ccccc2n2nc(-c3ccc(Cl)s3)nc12)c1ccc(Br)cc1 [compound 29, 1-(4-bromophenyl)-2-(2-(5-chlorothiophen-2-yl)-4H-benzo[4,5]imidazo[1,2-b][1,2,4]triazol-4-yl)ethan-1-one] | 13.6 µM | 83% | little reduction of potency |  |  | 
 |  | (4-bromophenyl) (2-(thiazol-2-yl)-4H-benzo[4,5] imidazo[1,2-b][1,2,4]triazol-4-yl)methanone [31a] |  |  | disappeared |  | 7.8 µM | 4.0%

Source: paper PMC6309140, “Synthesis and Evaluation of a New Type of Small Molecule Epigenetic Modulator Containing Imidazo[1,2-b][1,2,4]triazole Motif” (Frontiers in Chemistry, 2018)
